{
  "source": "patent US12115165B2",
  "about": "“Use of reboxetine to treat narcolepsy” (AXSOME THERAPEUTICS, INC., priority 2018, dated 2024)",
  "key": {"[1]": {"test_system": "patients with a diagnosis of narcolepsy with cataplexy", "experiment": "Phase 2, double-blind, randomized, placebo-controlled, crossover, multicenter trial of reboxetine in patients with narcolepsy", "format": "in vivo, human", "protocol": "A Phase 2, double-blind, randomized, placebo-controlled, crossover, multicenter trial of reboxetine was carried out in patients with narcolepsy. A total of 21 patients with a diagnosis of narcolepsy with cataplexy were treated for 2 weeks with reboxetine or with placebo, followed by a crossover to the other treatment after a 1-week down-titration and washout period. Reboxetine was administered orally twice daily, with a total daily dose of 8 mg for Week 1 which was escalated to 10 mg for Week 2. Patients were randomized in a 1:1 ratio either to treatment with reboxetine followed by placebo (sequence 1), or to treatment with placebo followed by reboxetine (sequence 2). The average number of cataplexy attacks at baseline was 30. Key assessments were made daily using an electronic diary. The prespecified primary endpoint was the change in the weekly number of cataplexy attacks, averaged over the 2-week treatment period (overall treatment effect). Secondary endpoints included changes in the number of inadvertent naps, cognition, and Epworth Sleepiness Scale. Cognition was assessed using the Ability to Concentrate item of the Narcolepsy Symptom Assessment Questionnaire, a patient reported outcome measure. This item is rated on 5-point scale (1=very good to 5=very poor). All analyses were conducted on an intent-to-treat basis."}, "[2]": {"settings": "human patients; without controlled release coating; cited from earlier work"}, "[3]": {"test_system": "patient diagnosed as suffering from narcolepsy with cataplexy", "experiment": "Single-patient examples: reboxetine 5 mg at 8 am and 5 mg at 1 pm for three weeks in narcolepsy with cataplexy", "format": "in vivo, human", "protocol": "(§1) A person is diagnosed as suffering from narcolepsy with cataplexy. They are given reboxetine and instructed to take 5 mg of reboxetine at 8 am and 5 mg of reboxetine at 1 pm for three weeks. The patient is evaluated prior to treatment, and weekly to determine the MWT score, the number of cataplexy attacks, the PGI-C score, the HAM-D score, the ESS score, the NSAQ score, and the ability to concentrate on the NSAQ. After one week of treatment, the number of cataplexy attacks have decreased by 10-30%.\nas §1, with “30-60%.” for “10-30%.”\nas §1, with “60-100%.” for “10-30%.”\nas §1, with “ESS score has” for “number of cataplexy attacks have”\nas §1, with “ESS score has” for “number of cataplexy attacks have”, “30-60%.” for “10-30%.”\nas §1, with “ESS score has” for “number of cataplexy attacks have”, “60-100%.” for “10-30%.”\nas §1, with “MWT score has” for “number of cataplexy attacks have”\nas §1, with “MWT score has” for “number of cataplexy attacks have”, “30-60%. […]” for “10-30%.”"}},
  "note": "“And” between values parts separate entries of the source, which are not always exact repeats. Equal values may be shown once.",
  "data": [
    {"smiles": "CCOc1ccccc1OC(c1ccccc1)C1CNCCO1", "note": "(centres unmarked) [reboxetine]", "values": [
      {"measurement": "patients with an ability to concentrate that was good to very good (Ability to Concentrate item of the NSAQ)", "setting": "[1]; Week 1, p=0.007 vs placebo", "result": 38.1, "unit": "%"},
      {"measurement": "mean reduction from baseline in cataplexy attacks", "setting": "[1]; Week 2", "result": 48.7, "unit": "%"},
      {"measurement": "mean reduction of cataplexy attacks per week", "setting": "[1]; Week 2, baseline average 30 attacks, p=0.002 vs placebo", "result": "14.6 cataplexy attacks per week"},
      {"measurement": "mean reduction from baseline in the average weekly number of inadvertent naps", "setting": "[1]; Week 2, p<0.001 vs placebo, FIG. 5", "result": 31.8, "unit": "%"},
      {"measurement": "proportion of patients achieving a 50% or greater reduction in the weekly number of cataplexy attacks", "setting": "[1]; Week 2, p=0.003 vs placebo, FIG. 2", "result": 76.2, "unit": "%"},
      {"measurement": "proportion of patients achieving a 75% or greater reduction in the weekly number of cataplexy attacks", "setting": "[1]; Week 2, p=0.018 vs placebo, FIG. 3", "result": 42.9, "unit": "%"},
      {"measurement": "mean reduction from baseline in cataplexy attacks", "setting": "[1]; after 1-week treatment", "result": 43.3, "unit": "%"},
      {"measurement": "mean reduction of cataplexy attacks", "setting": "[1]; after 1-week treatment, p<0.001 vs placebo", "result": 13.0, "unit": "cataplexy attacks"},
      {"measurement": "patients with reductions in hypnagogic hallucinations", "setting": "[1]; as compared to placebo, FIG. 9", "result": "greater proportion of patients with reductions"},
      {"measurement": "patients with reductions in sleep paralysis episodes", "setting": "[1]; as compared to placebo, FIG. 9", "result": "greater proportion of patients with reductions"},
      {"measurement": "patients with an ability to concentrate that was good to very good (Ability to Concentrate item of the NSAQ)", "setting": "[1]; end of the 2-week treatment period, 0% at baseline", "result": 42.9, "unit": "%"},
      {"measurement": "discontinuations due to adverse events", "setting": "[1]; human, in vivo", "result": "no discontinuations due to adverse events"},
      {"measurement": "most commonly reported adverse events", "setting": "[1]; human, in vivo", "result": "anxiety, constipation, and insomnia"},
      {"measurement": "safety and tolerability", "setting": "[1]; human, in vivo", "result": "safe and well tolerated"},
      {"measurement": "serious adverse events", "setting": "[1]; human, in vivo", "result": "no serious adverse events"},
      {"measurement": "reduction in the Epworth Sleepiness Scale (ESS) score from baseline", "setting": "[1]; p=0.003 vs placebo, FIG. 4", "result": 6.0},
      {"measurement": "patients reporting improved sleep quality", "setting": "[1]; p=0.007 vs placebo, FIG. 9", "result": 45.0, "unit": "%"},
      {"measurement": "patients with 50% or greater reduction in inadvertent naps", "setting": "[1]; p=0.036 vs placebo, FIG. 6", "result": 38.1, "unit": "%"},
      {"measurement": "patients reporting a reduction in the number of awakenings at night", "setting": "[1]; p=0.044 vs placebo, FIG. 9", "result": 30.0, "unit": "%"},
      {"measurement": "overall percentage of patients experiencing adverse events", "setting": "[1]; placebo 40.0%", "result": 42.9, "unit": "%"},
      {"measurement": "reduction from baseline in the mean weekly number of cataplexy attacks, averaged for the 2-week treatment period (overall treatment effect), primary endpoint", "setting": "[1]; vs placebo, p<0.001, 8 mg/day Week 1, 10 mg/day Week 2, oral twice daily, FIG. 1", "result": "highly statistically significant reduction"},
      {"measurement": "time to reach a maximum plasma concentration", "setting": "[2]", "result": "2 to 4", "unit": "h"},
      {"measurement": "decrease in ESS score", "setting": "[3]; after one week of treatment", "result": "10-30% and 30-60% and 60-100%"},
      {"measurement": "decrease in MWT score", "setting": "[3]; after one week of treatment", "result": "10-30% and 30-60% and 60-100%"},
      {"measurement": "decrease in number of cataplexy attacks", "setting": "[3]; after one week of treatment", "result": "10-30% and 30-60% and 60-100%"},
      {"measurement": "decrease in ESS score", "setting": "[3]; after three weeks of treatment", "result": "10-30% and 30-60% and 60-100%"},
      {"measurement": "decrease in HAM-D score", "setting": "[3]; after three weeks of treatment", "result": "10-30% and 30-60% and 60-100%"},
      {"measurement": "decrease in MWT score", "setting": "[3]; after three weeks of treatment", "result": "10-30% and 30-60% and 60-100%"},
      {"measurement": "decrease in number of cataplexy attacks", "setting": "[3]; after three weeks of treatment", "result": "10-30% and 30-60% and 60-100%"}
    ]}
  ]
}
